Results on 32 compounds are retold here after PubChem BioAssay AID463206 (Broad Institute, 2010).

Molecules are shown by their SMILES. Activity calls are given as the source filed them.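 Rule for the calls: active = caspase luminescence falls with dose and the half-maximal concentration AC50 from the fitted curve is at or below a set limit; inconclusive = flat fit at 30 to 70% signal loss, or invalid fit; inactive = AC50 above the limit, or signal rises instead.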

For this assay, the system named is INS-1E cytokine-induced caspase-3/7, Caspase-Glo luminescence, 48 h. In words: suppression of cytokine-driven beta-cell apoptosis – INS-1E rat cells, luminescence, orthogonal assay for beta-cell apoptosis protection project, dose response (AID 463206).

Take `COC(=O)C1=C(C)N(Cc2ccccc2)C(=NCc2cccc(C(F)(F)F)c2)N[C@H]1c1cccc(F)c1`: the AC50 was > 26 µM (inactive).

Turning to `C=CCNC1=C(Cl)C(=O)c2ccccc2C1=O`, the AC50 is > 26 µM (inactive).

`CC1(C)Cc2c(c(N3CCOCC3)nc3sc4c(NN)ncnc4c23)CS1`: the AC50 was > 26 µM (inactive).

Consider `O=C(N/N=C\c1c(O)ccc2ccccc12)c1ccc(S(=O)(=O)N2CCCCC2)cc1`, for which the AC50 is > 26 µM (inactive).

Regarding `O=C(Nc1cccc(C(F)(F)F)c1)Oc1ccc(Cl)c2cccnc12`, the AC50 is > 26 µM (inactive).

As to `C=CC[C@@H](CC(=O)N(CCO)Cc1ccccc1)C(=O)N[C@H](COC(=O)[C@@H](CC=C)CC(=O)OC(C)(C)C)c1ccccc1`, the AC50 was > 26 µM (inactive).

With `Cc1oc2c(c1C(=O)c1ccccc1)C(=O)C(=O)c1ccccc1-2`, the AC50 was > 26 µM (inactive).

Consider `CN1/C(=C\C(=S)NC(=O)c2ccc([N+](=O)[O-])cc2)C(C)(C)c2ccccc21`, for which the AC50 is > 26 µM (inactive).

For the compound `CCOC(=O)C1=C(c2ccc(OC)cc2)C(=O)c2ccccc2C1=O`, the AC50 is > 26 µM (inactive).

On to `Cn1ncc2c(N3CCN(c4ccc(Cl)c(Cl)c4)CC3)ncnc21`, for which the AC50 was > 26 µM (inactive).

Consider `Cc1ccc2c(c1)nnn2C1CCN(S(=O)(=O)c2ccc(C(=O)N3C(C)CCCC3C)cc2)CC1` (configuration not stated), for which the AC50 was > 26 µM (inactive).

With `CCn1c(/C=C/c2ccc([N+](=O)[O-])o2)nc2ccccc2c1=O`, the AC50 was > 26 µM (inactive).

On to `C[n+]1c2n(c3ccccc31)N=C(c1ccc(-c3ccccc3)cc1)CS2`, for which the AC50 is > 26 µM (inactive).

For the compound `CCCCn1c(=N)n(CC(=O)c2ccc(Br)s2)c2ccccc21`, the AC50 is > 26 µM (inactive).

For `O=C(/C=C/c1ccc(-c2ccccc2)cc1)NCc1cccnc1`, the AC50 is > 26 µM (inactive).

Consider `Cc1nc2ccccc2nc1N/N=C/c1ccc(O)cc1O`, for which the AC50 was > 26 µM (inactive).

In the case of `CCCSc1nsc(NC(=O)Nc2ccc(F)cc2F)n1`, the AC50 was > 26 µM (inactive).

`Cc1cccc2c(C(=O)N3CCN(c4ccccn4)CC3)cc(-c3cccc(Br)c3)nc12`: the AC50 is > 26 µM (inactive).

With `CN(C)CCOc1ccc(-c2c(-c3ccccc3)sc3ccccc23)cc1`, the AC50 was > 26 µM (inactive).

On to `O=C(c1cc(-c2cccc(O)c2)on1)N1CCN(C(c2ccccc2)c2ccccc2)CC1`, for which the AC50 was > 26 µM (inactive).

As to `COc1ccccc1NC(=O)c1nc(S(=O)(=O)Cc2ccccc2)ncc1Cl`, the AC50 is > 26 µM (inactive).

Consider `COc1ccc(CCNc2cc(N3CCN(C(=O)c4ccccc4OC)CC3)ccc2[N+](=O)[O-])cc1OC`, for which the AC50 was > 26 µM (inactive).

Take `Cc1ccc(N2C(=O)CSC2c2cccnc2)c(Cl)c1` (configuration not stated): the AC50 is > 26 µM (inactive).

For `CCN(CC)S(=O)(=O)c1cc(OC)ccc1N=Nc1ccc(O)c2ncccc12`, the AC50 was > 26 µM (inactive).

As to `CCn1c(=O)c(C(=O)Nc2ccccn2)c(O)c2ccccc21`, the AC50 is > 26 µM (inactive).

With `Cc1ccc(Nc2cc(C)nn2-c2nc(C)cc(=O)[nH]2)cc1`, the AC50 was > 26 µM (inactive).

Take `CC1CCC(C(C)C)C(OC(=O)Cn2c(-c3ccc(Br)cc3)[n+](C)c3ccccc32)C1` (configuration not stated): the AC50 was > 26 µM (inactive).

In the case of `Cc1ccc(S(=O)(=O)N2CCN(c3ncnc4sccc34)CC2)cc1`, the AC50 was > 26 µM (inactive).

`Cn1nc(C(C)(C)C)cc1C(=O)NCc1cc(F)cc2c1OCOC2`: the AC50 was > 26 µM (inactive).

`C=C1C(=O)O[C@@H]2C[C@@H](C)[C@@H]3C=CC(=O)[C@@]3(C)[C@@H](O)[C@H]12`: the AC50 is > 26 µM (inactive).

`N#CC(c1cccc(Cl)c1)c1ccc2c(C(F)(F)F)cc(C(F)(F)F)nc2n1` (configuration not stated): the AC50 is > 26 µM (inactive).

As to `COc1cc(-c2nc3ccc(C)cn3c2NCc2ccccc2)ccc1SC1CCCCC1`, the AC50 is > 26 µM (inactive).
